Measured values: patent publication US9556193B2, “Benzimidazole hexahydrofuro[3,2-b]furan derivatives” (Merck Sharp & Dohme Corp., priority 2012, dated 2017)

Legend:
ob/ob and db/db mice = conditions: following 8 weeks of administration; cited from earlier work
[1] = molecular target: T1, recombinant human AMPK complex 1 (containing α1β1γ1) (Homo sapiens, UniProt Q13131+Q9Y478); assay: In vitro AMPK activation assay (AMPKSAMSF), complex 1; format: biochemical; conditions: recombinant human AMPK complex 1 (α1β1γ1); for % Maximum AMP Activation of human AMPK Complex 1: 10-point titration expressed as % maximum AMP activation; for EC50: inflection point reflecting 50% of the maximum activation
T1 construct: made in house; host or cells: Spodoptera frugiperda Sf21 cells, baculovirus, triple infection (one virus per subunit)
Method: (§1) The recombinant human AMPK complex 1 (containing α1β1γ1) or AMPK complex 7 (containing α2β1γ1) was obtained from baculovirus expression system. Recombinant viruses were generated by cotransfection of AMPK/pBacPak9 clones with Baculogold baculovirus DNA (Pharmingen) in spodoptera frugiperda 21 cells according to the manufacturer's instructions. Each round of virus amplification was performed for 5 days in Grace's medium containing 10% serum. Virus that had been subjected to three rounds of amplification was used for all protein production procedures. To express the AMPK complex, sf21 cells were adapted to serum free medium (SF900 II, Invitrogen) by sequential dilution from serum containing stocks into SF900II medium and maintained in shaker flasks at 90 rpm at 27° C. The recombinant AMPK enzyme complex was produced by triple infection, one recombinant virus for each of the subunits, in sf21 cells under serum free conditions. Cells were infected in log phase, 1×10^6 cells/ml, at a multiplicity of infection of ˜5. Cells were harvested by centrifugation at 10,000×g for 15 minutes after 72 hours of infection with viruses. The insect cell pellet from 2 liters of culture was resuspended in 50 ml lysis buffer (20 mM Tris-HCl, 50 mM NaCl, 50 mM NaF, 30 mM Na PPi, 0.25 M sucrose, 10 mM ZnCl2, 2 mM DTT, 0.4 mg/ml digitonin) and subjected to two cycles of freeze-thaw lysis in a dry-ice ethanol bath. Insoluble material was removed by centrifugation at 10,000×g and the supernatant was fractionated with use of polyethylene glycol (PEG). The protein fraction precipitating between 2.5 and 6% PEG was used for further purification using a Blue-Sepharose step (Zhou et al, J. Clin. Invest. 108, 1167-1174, 2001).
(§2) The in vitro AMPK activation assay is performed in a volume of 30 μl in a 384-well plate. Enzyme reactions were assembled in the microtiter plate by adding 15 μl of 2× enzyme in assay buffer (20 mM HEPES, pH 7.3, 5 mM MgCl2, 3 mM DTT, 0.01% Brij 35 and CamK Kinase, to activate AMPK) to wells which contained either DMSO or compound. The reaction was initiated with the addition of 15 μl 2× substrate mixture containing 200 μM ATP, and 3.0 μM fluorescently labeled SAMS (5-FAM-HMRSAMSGLHLVKRR-COOH) in assay buffer. After 45-minute incubation at 25° C., the reaction was stopped by the addition of 70 μl stop buffer (100 mM HEPES, pH 7.3, 40 mM EDTA, 0.015% Brij 35). Phosphorylated 5-FAM SAMS product is assessed using a Caliper EZ Reader LabChip microfluidics reader. Product conversion is determined by calculating the peak heights of the substrate and product and reporting the product/(product+substrate) peak ratio. The 10-point titration data were expressed as % maximum AMP activation. The results were plotted using 4 parameter fit and the inflection point reflecting 50% of the maximum activation was reported as the EC50.

[2] = molecular target: T2, recombinant human AMPK complex 7 (containing α2β1γ1) (Homo sapiens, UniProt P54646+Q9Y478); assay: In vitro AMPK activation assay (AMPKSAMSF), complex 7; format: biochemical; conditions: recombinant human AMPK complex 7 (α2β1γ1); for Emax: 10-point titration expressed as % maximum AMP activation; for EC50: inflection point reflecting 50% of the maximum activation
T2 construct: made in house; host or cells: Spodoptera frugiperda Sf21 cells, baculovirus, triple infection (one virus per subunit)
Method: as §1, §2

T2 sequence (P54646 whole entry): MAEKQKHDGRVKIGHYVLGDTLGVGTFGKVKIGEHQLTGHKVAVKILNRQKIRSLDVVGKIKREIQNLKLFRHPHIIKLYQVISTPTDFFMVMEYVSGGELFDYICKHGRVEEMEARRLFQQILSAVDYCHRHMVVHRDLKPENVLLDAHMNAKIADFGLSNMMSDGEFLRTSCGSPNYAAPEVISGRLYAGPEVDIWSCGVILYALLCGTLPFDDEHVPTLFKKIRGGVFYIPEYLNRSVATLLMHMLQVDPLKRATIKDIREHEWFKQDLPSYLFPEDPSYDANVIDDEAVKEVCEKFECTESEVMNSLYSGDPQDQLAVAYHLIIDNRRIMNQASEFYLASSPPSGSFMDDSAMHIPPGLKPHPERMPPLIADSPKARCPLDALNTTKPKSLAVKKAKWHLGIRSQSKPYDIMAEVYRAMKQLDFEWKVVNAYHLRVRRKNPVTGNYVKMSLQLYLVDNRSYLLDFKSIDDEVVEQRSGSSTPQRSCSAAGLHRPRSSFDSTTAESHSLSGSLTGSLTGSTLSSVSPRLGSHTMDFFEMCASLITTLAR
T2 sequence (Q9Y478 whole entry): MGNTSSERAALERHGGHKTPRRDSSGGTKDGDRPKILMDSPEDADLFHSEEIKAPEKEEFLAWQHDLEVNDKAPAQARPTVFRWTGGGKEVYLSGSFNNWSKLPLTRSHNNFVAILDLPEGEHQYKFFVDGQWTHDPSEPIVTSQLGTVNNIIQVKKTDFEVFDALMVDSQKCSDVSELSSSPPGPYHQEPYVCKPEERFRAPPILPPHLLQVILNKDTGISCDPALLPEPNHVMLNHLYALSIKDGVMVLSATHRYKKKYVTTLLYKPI
T2 sequence (P54619 whole entry partner): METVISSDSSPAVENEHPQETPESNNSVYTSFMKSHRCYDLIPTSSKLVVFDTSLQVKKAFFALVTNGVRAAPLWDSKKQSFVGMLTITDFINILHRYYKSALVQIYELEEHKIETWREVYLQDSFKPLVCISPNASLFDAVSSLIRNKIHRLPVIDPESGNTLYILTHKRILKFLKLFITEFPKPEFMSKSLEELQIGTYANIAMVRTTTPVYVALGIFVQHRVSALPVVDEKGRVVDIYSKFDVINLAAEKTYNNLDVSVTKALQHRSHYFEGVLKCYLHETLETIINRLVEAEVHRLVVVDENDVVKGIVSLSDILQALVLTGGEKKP
T1 sequence (Q13131 whole entry): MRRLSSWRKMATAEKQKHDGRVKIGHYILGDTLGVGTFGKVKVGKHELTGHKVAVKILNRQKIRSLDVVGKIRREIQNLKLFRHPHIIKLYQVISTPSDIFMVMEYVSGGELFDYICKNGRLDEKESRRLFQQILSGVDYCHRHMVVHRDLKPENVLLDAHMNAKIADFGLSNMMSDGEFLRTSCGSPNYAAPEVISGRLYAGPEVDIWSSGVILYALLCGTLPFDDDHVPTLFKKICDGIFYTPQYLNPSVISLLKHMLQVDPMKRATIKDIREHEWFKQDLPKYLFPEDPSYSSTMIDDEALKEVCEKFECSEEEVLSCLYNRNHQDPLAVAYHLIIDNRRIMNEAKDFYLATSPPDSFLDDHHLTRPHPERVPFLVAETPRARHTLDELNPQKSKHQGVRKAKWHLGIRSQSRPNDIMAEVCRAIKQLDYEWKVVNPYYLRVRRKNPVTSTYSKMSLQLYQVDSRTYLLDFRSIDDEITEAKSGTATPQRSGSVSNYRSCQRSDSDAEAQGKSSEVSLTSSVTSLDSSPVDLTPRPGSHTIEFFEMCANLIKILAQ
T1 sequence (Q9Y478 whole entry): as the sequence (Q9Y478 whole entry) above
T1 sequence (P54619 whole entry partner): as the sequence (P54619 whole entry partner) above

| Emax [2] | EC50 [2] | Compound | blood glucose reduction (ob/ob and db/db mice) | % Maximum AMP Activation of human AMPK Complex 1 [1] | EC50 [1] |
| --- | --- | --- | --- | --- | --- |
| 380% | 3 nM | Oc1ccnc(-c2ccc(-c3ccc(-c4c(F)cc5[nH]c(O[C@@H]6CO[C@H]7[C@@H]6OC[C@H]7O)nc5c4F)cc3)cc2)n1 [Example 41] | – | – | – |
| 341% | 3 nM | O[C@@H]1CO[C@H]2[C@@H]1OC[C@H]2Oc1nc2c(F)c(-c3ccc(-c4ccc(-n5ccnn5)cc4)cc3)c(F)cc2[nH]1 [Example 43] | – | – | – |
| 348% | 4 nM | N=c1nc(N)[nH]n1-c1ccc(-c2ccc(-c3c(F)cc4[nH]c(O[C@@H]5CO[C@H]6[C@@H]5OC[C@H]6O)nc4c3F)cc2)cc1 [Example 47] | – | – | – |
| 356% | 8 nM | O=C(O)C1CC1c1ccc(-c2ccc(-c3cc4nc(O[C@@H]5CO[C@H]6[C@@H]5OC[C@H]6O)[nH]c4cc3Cl)cc2)cc1 (stereo partly drawn) [Example 57] | – | – | – |
| 324% | 4 nM | O[C@@H]1CO[C@H]2[C@@H]1OC[C@H]2Oc1nc2cc(-c3ccc(-c4ccc(C5CNCCO5)cc4)cc3)c(Cl)cc2[nH]1 (stereo partly drawn) [Example 67] | – | – | – |
| 359% | 2 nM | O=c1ncn(-c2ccc(-c3ccc(-c4cc5nc(O[C@@H]6CO[C@H]7[C@@H]6OC[C@H]7O)[nH]c5cc4Cl)cc3)cc2)[nH]1 [Example 69] | – | – | – |
| 369% | 16 nM | O[C@@H]1CO[C@H]2[C@@H]1OC[C@H]2Oc1nc2cc(-c3ccc(-c4ccc(-n5cccn5)cc4)cc3)c(Cl)cc2[nH]1 [Example 74] | – | – | – |
| 365% | 5 nM | O=C1NCCC1c1ccc(-c2ccc(-c3cc4nc(O[C@@H]5CO[C@H]6[C@@H]5OC[C@H]6O)[nH]c4cc3Cl)cc2)cc1 (stereo partly drawn) [Example 83] | – | – | – |

Continued, compound first:

| Compound | Emax [2] | EC50 [2] | blood glucose reduction (ob/ob and db/db mice) | % Maximum AMP Activation of human AMPK Complex 1 [1] | EC50 [1] |
| --- | --- | --- | --- | --- | --- |
| NC(=O)c1ncn([C@@H]2O[C@H](CO)[C@@H](O)[C@H]2O)c1N [AICAR] | – | – | 35% | – | – |
| O[C@@H]1CO[C@H]2[C@@H]1OC[C@H]2Oc1nc2c(F)c(-c3ccc(-c4ccccc4)cc3)c(F)cc2[nH]1 [Example 1, (3R,3aR,6R,6aR)-6-((5-([1,1′-biphenyl]-4-yl)-4,6-difluoro-1H-benzo[d]imidazol-2-yl)oxy)hexahydrofuro[3,2-b]furan-3-ol] | – | – | – | 636% | 51 nM |
| CS(=O)(=O)c1ccc(-c2ccc(-c3cc4nc(O[C@@H]5CO[C@H]6[C@@H]5OC[C@H]6O)[nH]c4cc3Cl)cc2)cc1 [Example 6] | – | – | – | 367% | 14 nM |
| O[C@@H]1CO[C@H]2[C@@H]1OC[C@H]2Oc1nc2cc(-c3ccc(-c4ccccc4)cc3)c(Cl)cc2[nH]1 [Example 8] | – | – | – | 368% | 32 nM |
| CC(C)(O)c1ccc(-c2ccc(-c3c(F)cc4[nH]c(O[C@@H]5CO[C@H]6[C@@H]5OC[C@H]6O)nc4c3F)cc2)cc1 [Example 15] | – | – | – | 416% | 18 nM |
| OCc1ccc(-c2ccc(-c3c(F)cc4[nH]c(O[C@H]5COC6C5OC[C@@H]6O)nc4c3F)cc2)cc1 (stereo partly drawn) [Example 18, (3S,6S)-6-((4,6-difluoro-5-(4′-(hydroxymethyl)-[1,1′-biphenyl]-4-yl)-1H-benzo[d]imidazol-2-yl)oxy)hexahydrofuro[3,2-b]furan-3-ol] | – | – | – | 314% | 6 nM |
| O=C(c1ccc(-c2ccc(-c3c(F)cc4[nH]c(O[C@H]5COC6C5OC[C@@H]6O)nc4c3F)cc2)cc1)N1CC[C@@H](O)C1 (stereo partly drawn) [Example 19, (4′-(4,6-difluoro-2-(((3S,6S)-6-hydroxyhexahydrofuro[3,2-b]furan-3-yl)oxy)-1H-benzo[d]imidazol-5-yl)-[1,1′-biphenyl]-4-yl)((R)-3-hydroxypyrrolidin-1-yl)methanone] | – | – | – | 232% | 35 nM |
| O=C(O)C1CC1c1ccc(-c2ccc(-c3c(F)cc4[nH]c(O[C@@H]5CO[C@H]6[C@@H]5OC[C@H]6O)nc4c3F)cc2)cc1 (stereo partly drawn) [Example 26] | 350% | 5 nM | – | – | – |
| CC(CO)(CO)c1ccc(-c2ccc(-c3c(F)cc4[nH]c(O[C@@H]5CO[C@H]6[C@@H]5OC[C@H]6O)nc4c3F)cc2)cc1 [Example 33] | 316% | 5 nM | – | – | – |
| O[C@@H]1CO[C@H]2[C@@H]1OC[C@H]2Oc1nc2c(F)c(-c3ccc(-c4ccc(C5CNCCO5)cc4)cc3)c(F)cc2[nH]1 (stereo partly drawn) [Example 34] | 263% | 5 nM | – | – | – |
| O=C1NCCC1c1ccc(-c2ccc(-c3c(F)cc4[nH]c(O[C@@H]5CO[C@H]6[C@@H]5OC[C@H]6O)nc4c3F)cc2)cc1 (stereo partly drawn) [Example 40] | 364% | 5 nM | – | – | – |
| CNC(=O)c1ccc(-c2ccc(-c3c(F)cc4[nH]c(O[C@@H]5CO[C@H]6[C@@H]5OC[C@H]6O)nc4c3F)cc2)cc1 [Example 46] | 364% | 2 nM | – | – | – |
| Oc1ccnc(-c2ccc(-c3ccc(-c4cc5nc(O[C@@H]6CO[C@H]7[C@@H]6OC[C@H]7O)[nH]c5cc4Cl)cc3)cc2)n1 [Example 68] | 344% | 3 nM | – | – | – |
| CC(CO)(CO)c1ccc(-c2ccc(-c3cc4nc(O[C@@H]5CO[C@H]6[C@@H]5OC[C@H]6O)[nH]c4cc3Cl)cc2)cc1 [Example 71] | 352% | 5 nM | – | – | – |
| O[C@@H]1CO[C@H]2[C@@H]1OC[C@H]2Oc1nc2cc(-c3ccc(-c4ccc(-n5ccnn5)cc4)cc3)c(Cl)cc2[nH]1 [Example 73] | 384% | 7 nM | – | – | – |
| CNC(=O)c1ccc(-c2ccc(-c3cc4nc(O[C@@H]5CO[C@H]6[C@@H]5OC[C@H]6O)[nH]c4cc3Cl)cc2)cc1 [Example 76] | 386% | 5 nM | – | – | – |
| N=c1nc(N)[nH]n1-c1ccc(-c2ccc(-c3cc4nc(O[C@@H]5CO[C@H]6[C@@H]5OC[C@H]6O)[nH]c4cc3Cl)cc2)cc1 [Example 77] | 368% | 8 nM | – | – | – |
| O=S(=O)(c1ccc(-c2ccc(-c3cc4nc(O[C@@H]5CO[C@H]6[C@@H]5OC[C@H]6O)[nH]c4cc3Cl)cc2)cc1)C1CCNCC1 [Example 79] | 381% | 9 nM | – | – | – |
